Test results from patent US20080167314A1, “Condensed Imidazole Compound And Use Thereof” (priority 2004, published 2008).
Structures can show the parent of a compound that is named as a salt.

| melting point | Structure (SMILES) |
| --- | --- |
| 213 to 214 °C | COc1ccc(CC(=O)Nc2cc(-c3c(-c4cccc(C)c4)nc4cccnn34)ccn2)cc1 [Example Compound 20-12, 2-(4-methoxyphenyl)-N-{4-[2-(3-methylphenyl)imidazo[1,2-b]pyridazin-3-yl]pyridin-2-yl}acetamide] |
| 212 to 213 °C | Cc1cc(-c2nc3c(C)ccnn3c2-c2ccnc(N)c2)ccc1F [Example Compound 37-2, 4-[2-(4-fluoro-3-methylphenyl)-8-methylimidazo[1,2-b]pyridazin-3-yl]-2-pyridylamine] |
| 237 to 238 °C | Cc1cccc(-c2nc3ccc(Cl)nn3c2-c2ccnc(N)n2)c1 [Example 34, 4-[6-Chloro-2-(3-methylphenyl)imidazo[1,2-b]pyridazin-3-yl]-2-pyrimidinamine] |
| 152 to 153 °C | Cc1cccc(-c2nc3cccnn3c2-c2ccnc(NC3CCC3)c2)c1 [Example Compound 6-3, N-cyclobutyl-4-[2-(3-methylphenyl)imidazo[1,2-b]pyridazin-3-yl]pyridin-2-amine] |
| 239 to 241 °C | Cc1cc(-c2nc3cccnn3c2-c2ccnc(NC(=O)c3ccc(Cl)cc3)c2)ccc1F (as salt: methanesulfonate) [Example 62, 4-Chloro-N-{4-[2-(4-fluoro-3-methylphenyl)imidazo[1,2-b]pyridazin-3-yl]pyridin-2-yl}benzamide methanesulfonate] |
| 202 to 203 °C | COc1ccc(C(=O)Nc2cc(-c3c(-c4ccc(F)c(C)c4)nc4cccnn34)ccn2)cc1F [Example 42-12, 3-fluoro-N-{4-[2-(4-fluoro-3-methylphenyl)imidazo[1,2-b]pyridazin-3-yl]pyridin-2-yl}-4-methoxybenzamide] |
| 200 to 201 °C | COc1cc(Cl)nn2c(-c3ccnc(N)c3)c(-c3ccc(F)c(C)c3)nc12 [Example Compound 36-3, 4-[6-chloro-2-(4-fluoro-3-methylphenyl)-8-methoxyimidazo[1,2-b]pyridazin-3-yl]-2-pyridylamine] |
| 231 to 232 °C | CCCNC(=O)Nc1cc(-c2c(-c3ccc(F)c(C)c3)nc3cccnn23)ccn1 [Example Compound 28-4, N-{4-[2-(4-fluoro-3-methylphenyl)imidazo[1,2-b]pyridazin-3-yl]pyridin-2-yl}-N′-propylurea] |
| 225 to 226 °C | Cc1cc(-c2nc3cccnn3c2-c2ccnc(NC(=O)c3ccc(OC(F)(F)F)cc3)c2)ccc1F [Example 42-14, N-{4-[2-(4-fluoro-3-methylphenyl)imidazo[1,2-b]pyridazin-3-yl]pyridin-2-yl}-4-(trifluoromethoxy)benzamide] |
| 216 to 217 °C | Cc1cc(-c2nc3c([S+](C)[O-])cc(Cl)nn3c2-c2ccnc(N)c2)ccc1F (stereo not shown) [Example 57-2, 4-[6-chloro-2-(4-fluoro-3-methylphenyl)-8-(methylsulfinyl)imidazo[1,2-b]pyridazin-3-yl]-2-pyridylamine] |
| 240 to 241 °C | Cc1cc(-c2nc3cccnn3c2-c2ccnc(NC(=O)NC3CCOCC3)c2)ccc1F [Example 51-15, N-{4-[2-(4-fluoro-3-methylphenyl)imidazo[1,2-b]pyridazin-3-yl]pyridin-2-yl}-N′-(tetrahydro-2H-pyran-4-yl)urea] |
| 122 to 124 °C | Cc1cccc(-c2nc3cccnn3c2-c2ccnc(NC(=O)N3CCc4ccccc4C3)c2)c1 [Example Compound 32-2, N-{4-[2-(3-methylphenyl)imidazo[1,2-b]pyridazin-3-yl]pyridin-2-yl}-3,4-dihydroisoquinoline-2-(1H)carboxamide] |
| 154 to 155 °C | Cc1cccc(-c2nc3cccnn3c2-c2ccnc(N[C@H](C)c3ccccc3)c2)c1 [Example Compound 6-22, 4-[2-(3-methylphenyl)imidazo[1,2-b]pyridazin-3-yl]-N-[(1R)-1-phenylethyl]pyridin-2-amine] |
| 193 to 194 °C | COc1ccc(C(=O)Nc2nccc(-c3c(-c4cccc(C)c4)nc4cccnn34)n2)cc1 [Example 44-2, 4-methoxy-N-{4-[2-(3-methylphenyl)imidazo[1,2-b]pyridazin-3-yl]pyrimidin-2-yl}benzamide] |
| 226 to 227 °C | O=C(Nc1cc(-c2c(-c3ccc(F)cc3)nc3cccnn23)ccn1)c1ccncc1 [Example 40-1, N-{4-[2-(4-fluorophenyl)imidazo[1,2-b]pyridazin-3-yl]pyridin-2-yl}isonicotinamide] |
| 188 to 189 °C | COc1ccc2nc(-c3cccc(C)c3)c(-c3ccnc(NC4CCCCC4)c3)n2n1 [Example 9, N-Cyclohexyl-4-[6-methoxy-2-(3-methylphenyl)imidazo[1,2-b]pyridazin-3-yl]pyridin-2-amine] |
| 185 to 186 °C | Cc1cccc(-c2nc3cccnn3c2-c2ccnc(NCc3cccs3)c2)c1 [Example Compound 6-15, 4-[2-(3-methylphenyl)imidazo[1,2-b]pyridazin-3-yl]-N-(2-thienylmethyl)pyridin-2-amine] |
| 225 to 227 °C | CNC(=O)Nc1cc(-c2c(-c3ccc(F)c(C)c3)nc3cccnn23)ccn1 [Example 47-1, N-{4-[2-(4-fluoro-3-methylphenyl)imidazo[1,2-b]pyridazin-3-yl]pyridin-2-yl}-N′-methylurea] |
| 191 to 192 °C | Cc1cccc(-c2nc3ccc(Cl)nn3c2-c2ccnc(Nc3ccccc3C)c2)c1 [Example Compound 3-2, 4-[6-chloro-2-(3-methylphenyl)imidazo[1,2-b]pyridazin-3-yl]-N-(2-methylphenyl)pyridin-2-amine] |
| 245 to 246 °C | Cc1cc(-c2nc3cccnn3c2-c2ccnc(NC(=O)c3ccc(N(C)C)cc3)c2)ccc1F [Example 42-10, 4-(dimethylamino)-N-{4-[2-(4-fluoro-3-methylphenyl)imidazo[1,2-b]pyridazin-3-yl]pyridin-2-yl}benzamide] |
| 251 to 252 °C | COc1cc(F)ccc1C(=O)Nc1cc(-c2c(-c3ccc(F)c(C)c3)nc3cccnn23)ccn1 [Example 42-8, 4-fluoro-N-{4-[2-(4-fluoro-3-methylphenyl)imidazo[1,2-b]pyridazin-3-yl]pyridin-2-yl}-2-methoxybenzamide] |
| 177 to 178 °C | COc1ccc(C(=O)Nc2cc(-c3c(-c4cccc(C)c4)nc4cccnn34)ccn2)cc1 [Example compound 20-2, 4-methoxy-N-{4-[2-(3-methylphenyl)imidazo[1,2-b]pyridazin-3-yl]pyridin-2-yl}benzamide] |
| 212 to 213 °C | CCNC(=O)Nc1cc(-c2c(-c3cccc(C)c3)nc3cccnn23)ccn1 [Example Compound 27-4, N-ethyl-N′-(4-[2-(3-methylphenyl)imidazo[1,2-b]pyridazin-3-yl]pyridin-2-yl)urea] |
| 188 to 189 °C | Cc1cccc(-c2nc3cccnn3c2-c2ccnc(N)c2)c1 [Example 14, 4-[2-(3-Methylphenyl)imidazo[1,2-b]pyridazin-3-yl]pyridin-2-amine] |
| 201 to 202 °C | Cc1cc(-c2nc3cc(C(C)(C)C)cnn3c2-c2ccnc(NC(=O)c3ccc(F)cc3)c2)ccc1F [Example 41-5, N-{4-[7-tert-butyl-2-(4-fluoro-3-methylphenyl)imidazo[1,2-b]pyridazin-3-yl]-2-pyridyl}-4-fluorobenzamide] |
